Like-named read-outs stand apart in the source and are kept apart here.
Columns and labels:
[1] = tested on: Caspase 3/7; assay: Apoptosis assay (Caspase 3/7) in A549 cells; type: cell-based; settings: Homo sapiens, 24 hours, read-out: EC50, Caspase 3/7 activation
Excerpt: Overview. PIM1 is a kinase, and has many downstream targets including Bad (BCL2 associated agonist of cell death), a member of the BCL-2 family. BCL-2 family members are regulators of the programmed cell death pathways. Proapoptotic activity of Bad is regulated through its phosphorylation. Dephosphorylated Bad forms a heterodimer with Bcl-2 and Bcl-xL, inactivating them and thus allowing Bax/Bak-triggered apoptosis. Bad phosphorylation is thus anti-apoptotic, and Bad dephosphorylation is pro-apoptotic. PIM inhibition is expected to result in a decrease of phosphorylated Bad, and an increase in apoptosis.
Procedure. Three thousand five hundred A549 cells (ATCC, CCL-185) were added per well of a 384-well plate in a total volume of twenty-five microliters and cultured in RPMI medium (no phenol red)+plus ten percent fetal calf serum. The next day, DMSO or test compound was added (90 nanoliters of test compound/DMSO per well) at 7 different concentrations starting at 10 micromolar (3.3-fold dilution). After 24 hours at 37° C. with 5% CO2, apoptosis was measured by using the Caspase 3/7 assay system (Promega, G8090). […] The cells were then incubated at room temperature for 30 minutes and luminescence was measured for each sample using a plate reading luminometer (Envision, PerkinElmer).

[2] = tested on: A549 cells; assay: Wound healing assay in A549 cells with TGF-β; type: cell-based; settings: for IC50: Homo sapiens, wound healing, A549, 5 ng/ml TGF-β; for migration (wound closure): after 72 hours, vs vehicle control with TGF-β
Excerpt: Overview. Epithelial to mesenchymal transition (EMT) is used to describe epithelial cells losing their cell to cell adhesion and polarity while gaining migratory and invasive properties. The process of EMT is required for normal embryonic development and wound healing, but has also been implicated in fibrosis. In humans, TGF-β signaling is the main driver of EMT, and inhibiting this pathway may be beneficial in various diseases such as fibrosis. A wound healing assay was used to study cell migration and cell-cell interaction, and probe the EMT properties of lung epithelial cells (A549) in presence of Compound 2 or Compound 4.
Procedure. A549 cells (ATCC, CCL-185) were seeded into the ImageLock plate (Essen Bioscience) at 2×10^4 cells/well in 100 μL of complete growth media. Cells were incubated overnight at 37° C., 5% CO2. The next day, cells were washed with 1×PBS and Compound 2, Compound 4, DMSO control (±TGF-β) or galunisertib (TGF-β inhibitor used as positive control) was added to the cells in a serum-free F12K media (0.2% DMSO final, 10 μM starting concentration, 3-fold dilution, 8-doses) in presence of 5 ng/ml TGF-β. Cells were incubated for 48 hours (until they reached confluency) at 37° C., 5% CO2. Wounds were simultaneously created using a WoundMaker™ (Essen Bioscience). Debris and non-attached cells were removed by gently washing once with F12K.
Test compound or control compound and TGF-β were added to the cells in F12K+10% FBS as previously described. The ImageLock plate was put into IncuCyteS3 instrument installed inside a 5% CO2 incubator. The plate was allowed to equilibrate in the IncuCyteS3 instrument for 15 minutes prior to scheduling the first scan and data recording. The plate was incubated for 72 hours at 37° C., and wound closure was recorded in real time with the IncuCyte S3 imaging system. Percentage of relative wound density was quantitatively calculated by the IncuCyte software.

Row | EC50 [1] [µM] | IC50 ([2]; 24 h, read-out: IC50 (μM) 24 h) [µM] | IC50 ([2]; 48 h, read-out: IC50 (μM) 48 h) [µM] | IC50 ([2]; 72 h, read-out: IC50 (μM) 72 h) [µM] | Structure (SMILES) | migration (wound closure) [2]
1 | 1 to 20 | 1 to 10 | 1 to 10 | 1 to 10 | Cc1cc(-c2cnc3ccc(NC45CCC(C(C)(C)O)(CC4)CC5)nn23)n[nH]1 [Compound 2, 2-(4-((3-(5-methyl-1H-pyrazol-3-yl)imidazo[1,2-b]pyridazin-6-yl)amino)bicyclo[2.2.2]octan-1-yl)propan-2-ol] | strongly inhibited
2 | 1 to 20 | 1 to 10 | 1 to 10 | 1 to 10 | CC(C)(O)C12CCC(Nc3ccc4ncc(-c5cc(C6CC6)[nH]n5)n4n3)(CC1)CC2 [Compound 4, 2-(4-((3-(5-cyclopropyl-1H-pyrazol-3-yl)imidazo[1,2-b]pyridazin-6-yl)amino)bicyclo[2.2.2]octan-1-yl)propan-2-ol] | strongly inhibited

Reference: US20240360135A1, “IMIDAZO[1,2-B]PYRIDAZINYL COMPOUNDS AND USES THEREOF” (Sumitomo Pharma Oncology, Inc., priority 2021, published 2024)
